The values that follow come from article PMC3495175 (Bioorganic & medicinal chemistry, 2012).

A word on the IC50: it is the midpoint of a concentration-inhibition curve. Read a low IC50 as inhibition by little substance.

Chain of MtMetAP1c (P9WK19 whole entry): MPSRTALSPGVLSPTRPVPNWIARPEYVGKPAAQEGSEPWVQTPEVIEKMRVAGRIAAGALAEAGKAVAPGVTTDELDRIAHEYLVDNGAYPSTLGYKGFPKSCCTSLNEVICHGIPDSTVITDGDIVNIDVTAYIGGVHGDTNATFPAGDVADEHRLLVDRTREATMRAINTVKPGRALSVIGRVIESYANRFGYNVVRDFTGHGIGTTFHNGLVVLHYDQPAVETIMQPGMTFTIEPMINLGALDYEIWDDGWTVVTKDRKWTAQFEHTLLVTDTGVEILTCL

One test deals with MtMetAP1a (Mycobacterium tuberculosis, UniProt P9WK21). Put plainly: MtMetAP1a coupled enzyme assay. The format is biochemical. Particulars: IC50 (µM), MtMetAP 1a, Co2+, Co2+ cofactor (10 µM CoCl2), 200 nM enzyme.
Chain of MtMetAP1a (P9WK21 whole entry): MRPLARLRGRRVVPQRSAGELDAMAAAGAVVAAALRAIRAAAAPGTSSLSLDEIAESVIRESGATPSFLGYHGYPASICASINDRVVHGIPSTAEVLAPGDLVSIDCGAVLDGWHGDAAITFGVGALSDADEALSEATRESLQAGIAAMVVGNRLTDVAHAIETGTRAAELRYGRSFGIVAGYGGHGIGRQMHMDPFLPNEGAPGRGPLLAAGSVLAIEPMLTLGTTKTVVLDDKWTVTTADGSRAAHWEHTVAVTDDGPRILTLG
Consider `Nc1nc2c(s1)CCc1ccccc1-2` [3n, reference compound], for which the 50% inhibitory concentration (IC50) is more than 50 µM.
Same read-out and setting: in the case of `COc1ccc2c(c1)CCc1sc(N)nc1-2` [3o, reference compound] it was more than 50 µM; in that of `COc1ccc2c(c1)CCc1sc(NC(C)=O)nc1-2` [3p, reference compound], more than 50 µM.
`CCCCCCCCC(=O)Nc1nc2c(s1)CCc1ccccc1-2` [3q, reference compound]: the half-inhibitory concentration (IC50) is more than 50 µM.
On the same count and under the same terms, in the case of `CCCCCCCCC(=O)Nc1nc2c(s1)CCc1cc(OC)ccc1-2` [3r, reference compound] it was more than 50 µM; in that of `COc1ccc2c(c1)CCc1sc(NC(=O)[C@H](C)O)nc1-2` [3s, (S)-2-Hydroxy-N-(7-methoxy-4H,5H-naphtho[1,2-d]thiazol-2-yl)propanamide], more than 50 µM; in that of `COc1ccc2c(c1)CCc1sc(/N=C/c3ccco3)nc1-2` [3t], more than 50 µM.
For the compound `COc1ccc2c(c1)CCc1sc(NCc3ccco3)nc1-2` [3u, N-(Furan-2-ylmethyl)-7-methoxy-4H,5H-naphtho[1,2-d]thiazol-2-amine], the IC50 is more than 50 µM.
Same read-out and setting: in the case of `COc1ccc2c(c1)CCc1sc(/N=C/c3ccccc3O)nc1-2` [3v] it was more than 50 µM; in that of `COc1ccc2c(c1)Cc1sc(N/C=N\O)nc1-2` [4l], more than 50 µM.
Still for that read-out and setting: the same measure for `COc1ccc(-c2csc(N/C=N\O)n2)cc1OC` [4m]: more than 20 µM.

The same test, now with this note: IC50 (µM), MtMetAP 1a, Mn2+, Mn2+ cofactor (10 µM MnCl2), 200 nM enzyme.
On to `Nc1nc2c(s1)CCc1ccccc1-2` [3n, reference compound], for which the 50% inhibitory concentration (IC50) is more than 50 µM.
The same measure, in the same setting: the same measure for `COc1ccc2c(c1)CCc1sc(N)nc1-2` [3o, reference compound]: more than 50 µM; for `COc1ccc2c(c1)CCc1sc(NC(C)=O)nc1-2` [3p, reference compound]: more than 50 µM.
Still for that read-out and setting: the same measure for `CCCCCCCCC(=O)Nc1nc2c(s1)CCc1ccccc1-2` [3q, reference compound]: more than 50 µM; for `CCCCCCCCC(=O)Nc1nc2c(s1)CCc1cc(OC)ccc1-2` [3r, reference compound]: more than 50 µM; for `COc1ccc2c(c1)CCc1sc(NC(=O)[C@H](C)O)nc1-2` [3s, (S)-2-Hydroxy-N-(7-methoxy-4H,5H-naphtho[1,2-d]thiazol-2-yl)propanamide]: more than 50 µM.
Take `COc1ccc2c(c1)CCc1sc(/N=C/c3ccco3)nc1-2` [3t]: the IC50 is more than 50 µM.
On the same count and under the same terms, in the case of `COc1ccc2c(c1)CCc1sc(NCc3ccco3)nc1-2` [3u, N-(Furan-2-ylmethyl)-7-methoxy-4H,5H-naphtho[1,2-d]thiazol-2-amine] it was more than 50 µM; in that of `COc1ccc2c(c1)CCc1sc(/N=C/c3ccccc3O)nc1-2` [3v], more than 50 µM.
Same read-out and setting: in the case of `O/N=C\Nc1nc2c(s1)CCc1ccccc1-2` [4a] it was more than 50 µM; in that of `COc1ccc2c(c1)-c1nc(NC=NO)sc1CC2` [4b, N'-hydroxy-N-(8-methoxy-4H,5H-naphtho[1,2-d]thiazol-2-yl)methanimidamide], more than 50 µM; in that of `COc1ccc2c(c1)CCc1sc(N/C=N\O)nc1-2` [4c, N'-hydroxy-N-(7-methoxy-4H,5H-naphtho[1,2-d]thiazol-2-yl)methanimidamide], more than 50 µM.
Same read-out and setting: in the case of `O/N=C\Nc1nc2c(s1)CCc1cc3c(cc1-2)OCO3` [4f] it was more than 20 µM; in that of `O/N=C\Nc1nc2c(s1)COc1cc3c(cc1-2)OCO3` [4h], more than 10 µM; in that of `O/N=C\Nc1nc2c(s1)CCCc1cc3c(cc1-2)OCO3` [4j], more than 50 µM.
For `COc1ccc2c(c1)Cc1sc(N/C=N\O)nc1-2` [4l], the IC50 was more than 50 µM.
As to `COc1ccc(-c2csc(N/C=N\O)n2)cc1OC` [4m], the 50% inhibitory concentration (IC50) was more than 20 µM.

The same test, now with this note: both metalloforms (Co2+, Mn2+).
For the compound `COc1ccc2c(c1)OCc1sc(N/C=N\O)nc1-2` [4g], the “Inhibition of MtMetAP1a (in words)” value is recorded as “moderate inhibition”.
On the same count and under the same terms, the same measure for `COc1ccc2c(c1)OC(c1ccccc1)c1sc(N/C=N\O)nc1-2` (stereo not shown) [4i]: “moderate inhibition”.

The next test addresses MtMetAP1c (Mycobacterium tuberculosis, UniProt P9WK19). Put plainly: MtMetAP1c coupled enzyme assay.
Conditions: not given
The format is biochemical.
As for `COc1ccc2c(c1)OCc1sc(N/C=N\O)nc1-2` [4g], the “Inhibition of MtMetAP1c (in words)” value was “did not inhibit”.
On the same count and under the same terms, in the case of `COc1ccc2c(c1)OC(c1ccccc1)c1sc(N/C=N\O)nc1-2` (stereo not shown) [4i] it was “did not inhibit”; in that of `COc1ccc(-c2csc(N/C=N\O)n2)cc1OC` [4m], “moderate potency”.

Still in this test, the particulars now being: IC50 (µM), MtMetAP 1c, Co2+, Co2+ cofactor (10 µM CoCl2), 100 nM enzyme.
Regarding `Nc1nc2c(s1)CCc1ccccc1-2` [3n, reference compound], the half-inhibitory concentration (IC50) is more than 50 µM.
Same read-out and setting: the same measure for `COc1ccc2c(c1)CCc1sc(N)nc1-2` [3o, reference compound]: more than 50 µM; for `COc1ccc2c(c1)CCc1sc(NC(C)=O)nc1-2` [3p, reference compound]: more than 50 µM.
On the same count and under the same terms, the same measure for `CCCCCCCCC(=O)Nc1nc2c(s1)CCc1ccccc1-2` [3q, reference compound]: more than 50 µM; for `CCCCCCCCC(=O)Nc1nc2c(s1)CCc1cc(OC)ccc1-2` [3r, reference compound]: more than 50 µM; for `COc1ccc2c(c1)CCc1sc(NC(=O)[C@H](C)O)nc1-2` [3s, (S)-2-Hydroxy-N-(7-methoxy-4H,5H-naphtho[1,2-d]thiazol-2-yl)propanamide]: more than 50 µM.
Same read-out and setting: in the case of `COc1ccc2c(c1)CCc1sc(/N=C/c3ccco3)nc1-2` [3t] it was more than 50 µM; in that of `COc1ccc2c(c1)CCc1sc(NCc3ccco3)nc1-2` [3u, N-(Furan-2-ylmethyl)-7-methoxy-4H,5H-naphtho[1,2-d]thiazol-2-amine], more than 50 µM; in that of `COc1ccc2c(c1)CCc1sc(/N=C/c3ccccc3O)nc1-2` [3v], more than 50 µM.
`COc1ccc2c(c1)OCc1sc(N/C=N\O)nc1-2` [4g] returned a half-inhibitory concentration (IC50) of more than 50 µM.
On the same count and under the same terms, in the case of `COc1ccc2c(c1)OC(c1ccccc1)c1sc(N/C=N\O)nc1-2` (stereo not shown) [4i] it was more than 50 µM; in that of `COc1ccc2c(c1)Cc1sc(N/C=N\O)nc1-2` [4l], more than 50 µM.

The same test, now with this note: IC50 (µM), MtMetAP 1c, Mn2+, Mn2+ cofactor (10 µM MnCl2), 100 nM enzyme.
With `CN(C)/C=N/c1nc2c(s1)CCc1ccccc1-2` [3a], the IC50 was more than 50 µM.
Still for that read-out and setting: the same measure for `Nc1nc2c(s1)CCc1ccccc1-2` [3n, reference compound]: more than 50 µM.
As for `COc1ccc2c(c1)CCc1sc(N)nc1-2` [3o, reference compound], the 50% inhibitory concentration (IC50) was more than 50 µM.
Turning to `COc1ccc2c(c1)CCc1sc(NC(C)=O)nc1-2` [3p, reference compound], the IC50 is more than 50 µM.
Same read-out and setting: the same measure for `CCCCCCCCC(=O)Nc1nc2c(s1)CCc1ccccc1-2` [3q, reference compound]: more than 50 µM; for `CCCCCCCCC(=O)Nc1nc2c(s1)CCc1cc(OC)ccc1-2` [3r, reference compound]: more than 50 µM; for `COc1ccc2c(c1)CCc1sc(NC(=O)[C@H](C)O)nc1-2` [3s, (S)-2-Hydroxy-N-(7-methoxy-4H,5H-naphtho[1,2-d]thiazol-2-yl)propanamide]: more than 50 µM.
Still for that read-out and setting: the same measure for `COc1ccc2c(c1)CCc1sc(/N=C/c3ccco3)nc1-2` [3t]: more than 50 µM.
Consider `COc1ccc2c(c1)CCc1sc(NCc3ccco3)nc1-2` [3u, N-(Furan-2-ylmethyl)-7-methoxy-4H,5H-naphtho[1,2-d]thiazol-2-amine], for which the 50% inhibitory concentration (IC50) is more than 50 µM.
For the compound `COc1ccc2c(c1)CCc1sc(/N=C/c3ccccc3O)nc1-2` [3v], the IC50 is more than 50 µM.
In the case of `O/N=C\Nc1nc2c(s1)CCc1ccccc1-2` [4a], the concentration for half-maximal inhibition (IC50) is more than 50 µM.
`COc1ccc2c(c1)CCc1sc(N/C=N\O)nc1-2` [4c, N'-hydroxy-N-(7-methoxy-4H,5H-naphtho[1,2-d]thiazol-2-yl)methanimidamide] gave an IC50 of more than 50 µM.
On the same count and under the same terms, in the case of `COc1cc2c(cc1OC)-c1nc(N/C=N\O)sc1CC2` [4e] it was more than 50 µM.
The same measure, in the same setting: the same measure for `COc1ccc2c(c1)OCc1sc(N/C=N\O)nc1-2` [4g]: more than 50 µM.
Still for that read-out and setting: the same measure for `COc1ccc2c(c1)OC(c1ccccc1)c1sc(N/C=N\O)nc1-2` (stereo not shown) [4i]: more than 50 µM; for `COc1ccc2c(c1)Cc1sc(N/C=N\O)nc1-2` [4l]: more than 50 µM.
